From patent US6790992B2, “Scyphostatin analogues as SMase inhibitors” (Biofrontera Pharmaceuticals GmbH, priority 2002, dated 2004)

How the values were obtained:
[1] = test system: sphingomyleinase activity of mmLDL-stimulated monocytes; experiment: Sphingomyelinase activity in mmLDL-stimulated human monocytes; type: cell-based; settings: compound 13 0.1-0 μm, 30 min pretreatment, then mmLDL 4 hours; average of 5 experiments; values only in FIG. 4
Method: Average values from 5 individual experiments.
90 nM BODIPY-FL-C5 sphingomylein (molecular probes) are dissolved in 200 μl ethanol, then injected into 10 ml PBS containing 0.75 mg/ml BSA. The solution is dialyzed extensively against PBS, the resulting dialyzate is sterile-filtered and diluted 1:1 using RPMI medium. Together with the solution a monolayer of human monocytes' is incubated with 5% CO2 at 37° C. for 4 hours, washed twice with 5 ml PBS, admixed with new medium and then incubated at the corresponding concentrations of compound (13) for 30 minutes. The pretreated cells are treated with slightly modified low-density lipoprotein (mmLDL)^10 for 4 hours and extracted according to Bligh and Dyer^11. The enzyme activity is determined by the ratio of BODIPY-FL-C5—sphingomyelin to BODIPY-FL-C5 ceramide^12.

[2] = Chemical, acid and redox stability; type: physicochemical
[3] = test system: human monocytes; experiment: Antiapoptotic activity in TNFα-treated human monocytes (YOPRO-1 staining); type: cell-based; settings: pretreatment 30 min, 0.1 μm, then TNFα 4 hours; average of 5 experiments; values only in FIG. 3
Method: In addition, part of the cells are pretreated with compound 13 (30 min., 0.1 μm). The percentage of apoptotic cells is determined in all of the samples by YOPRO-1 staining^10. Average values from 5 experiments.

[4] = background statement, cited from earlier work

Row | SMILES | Inhibitory effect on the sphingomyleinase activity [1] | Chemical stability (e.g. stability in acidic solutions) ([2]; epoxide-free analogues, compared with natural scyphostatin) | Stability at pH 2 ([2]; pH values of 2 at 40° C. for a period of several hours) | Antiapoptotic activity (percentage of apoptotic cells) [3] | Chemical and metabolic stability ([4]; natural scyphostatin) | Stability in acid ([4]; natural substance)
1 | CCCCCCCCCCCCCCCC(=O)N[C@H](CO)C[C@]1(O)CCC=CC1=O [compound 13, hexadecanoic acid-[1-hydroxymethyl-2-(1-hydroxy-2-oxo-cyclohex-3-enyl)ethyl]amide] | Inhibitory effect | increased chemical stability | stable | Antiapoptotic activity | – | –
2 | CC[C@@H](C)/C=C(\C)C[C@@H](C)C[C@@H](C)/C=C/C=C/C=C/C(=O)N[C@H](CO)C[C@@]1(O)C(=O)C=C[C@@H]2O[C@@H]21 [scyphostatin] | – | – | – | – | chemically and metabolically very unstable | unstable in acid
